Experimental data as given in US20230295164A1, “COMPOUNDS HAVING ANTIBACTERIAL ACTIVITY” (The Trustees of Princeton University, priority 2020, published 2023).

Columns and labels:
Test in all cases: MIC testing, broth microdilution in CAMHB
Assay type in all cases: cell-based
Conditions in all cases: 37° C., 18-20 hr, lowest concentration that completely inhibits visible growth
[1] = tested on: Acinetobacter baumannii, ATCC 17978
Protocol: (§1) Compounds 1-71 were subsequently tested to determine MICs of the compounds relative to the following five species/strains of bacteria: Staphylococcus aureus, NRS384; Enterococcus faecalis, ATCC 51575; Salmonella typhimurium, CMCC 50115; Escherichia coli, ATCC BAA-198; and Acinetobacter baumannii, ATCC 17978. MIC testing of compounds was conducted according to the following protocol.
(§2) For each strain to be tested, made fresh streaks onto CAMHA from −80° C. glycerol stocks.
(§3) • CAMHB: Dissolved 22 g of the powder per 1 L of purified water. Mixed well. Autoclaved at 121° C. for 10 minutes. Stored at room temperature (RT) for no more than 1 week. • Saline: Dissolved 9 g of the powder per 1 L of purified water. Mixed well. Autoclaved at 121° C. for 30 minutes. Stored at room temperature (RT) for no more than 1 week.
(§4) Prepared the stock solutions of the tested compounds.
(§5) For compounds: • a) Dispensed 20 ul compound to the wells in column 1, and 20 ul DMSO to the wells in column 2 to 12; • b) Diluted the compounds by transferring 10 ul compounds from column 1 to 20 ul DMSO in column 2; mix with pipette. • c) Repeated until column 11 to get 3×serial dilutions. Column 12 was the DMSO control.
(§6) A multichannel pipette was used to deliver 1 μl of the diluted compound into each well of the corresponding daughter plate.
(§7) Scraped 4-8 single colonies from an agar plate into 5 ml saline in a 14 ml Falcon conical tube. Vortexed the tube to suspend the bacteria. Adjusted the turbidity to ˜0.2 (corresponding to 0.5 McFarland) with an Ultrospec 10 Cell density meter.
(§8) The strain suspension was diluted 200-fold in CAMHB medium and dispense into a sterile reservoir. A multichannel pipette was then used to deliver 99 μl of the diluted inocula into each well of the corresponding daughter plate.
(§9) Incubate the daughter plates at 37° C., 85% humidity for 18-20 hr.
(§10) A magnifying mirror device was used for ease of scoring the presence or absence of growth in the wells. 96-well micro-plates were photographed.

[2] = tested on: Escherichia coli, ATCC BAA-198
Protocol: as §1, §2, §3, §4, §5, §6, §7, §8, §9, §10

[3] = tested on: Staphylococcus aureus, NRS384
Protocol: as §1, §2, §3, §4, §5, §6, §7, §8, §9, §10

[4] = tested on: Salmonella typhimurium, CMCC 50115
Protocol: as §1, §2, §3, §4, §5, §6, §7, §8, §9, §10

[5] = tested on: Enterococcus faecalis, ATCC 51575
Protocol: as §1, §2, §3, §4, §5, §6, §7, §8, §9, §10

Compound	Compound MICs, Acinetobacter baumannii, ATCC 17978 [1] [µg/mL]	Compound MICs, Escherichia coli, ATCC BAA-198 [2] [µg/mL]	Compound MICs, Staphylococcus aureus, NRS384 [3] [µg/mL]	Compound MICs, Salmonella typhimurium, CMCC 50115 [4] [µg/mL]	Compound MICs, Enterococcus faecalis, ATCC 51575 [5] [µg/mL]
Nc1nc(N)c2c(n1)c(-c1cccnc1)cc1c2ccn1Cc1ccc(F)cc1 [Compound 43]	64	64	2.37	2.37	0.09
C#Cc1ccc(Cn2ccc3c4c(N)nc(N)nc4c(Br)cc32)cc1 [Compound 47]	>64	>64	0.09	2.37	0.003
Nc1nc(N)c2c(n1)c(C1CC1)cc1c2ccn1Cc1ccc(F)cc1 [Compound 49]	>64	>64	2.37	2.37	0.26
Nc1nc(N)c2c(n1)c(-c1ccc(F)cc1)cc1c2ccn1Cc1ccc(F)cc1 [Compound 52]	>64	>64	7.11	21.3	2.37
C=C(Cn1ccc2c3c(N)nc(N)nc3c(Br)cc21)C(=O)OC [Compound 54]	64	>64	2.37	21.3	0.003
Cc1cc2c(ccn2Cc2ccc(F)cc2)c2c(N)nc(N)nc12 [Compound 55]	2.37	7.11	0.26	0.26	0.03

Now from value to compound:

Compound MICs, Acinetobacter baumannii, ATCC 17978 [1] [µg/mL]	Compound MICs, Escherichia coli, ATCC BAA-198 [2] [µg/mL]	Compound MICs, Staphylococcus aureus, NRS384 [3] [µg/mL]	Compound MICs, Salmonella typhimurium, CMCC 50115 [4] [µg/mL]	Compound MICs, Enterococcus faecalis, ATCC 51575 [5] [µg/mL]	Compound
64	7.11	0.09	7.11	0.03	Nc1nc(N)c2c(ccc3c2ccn3Cc2ccc(Br)c3ccccc23)n1 [Compound 44]
7.11	>64	0.79	2.37	≤0.001	Nc1nc(N)c2c(n1)c(Br)cc1c2ccn1Cc1ccc(F)cc1 [Compound 46]
7.11	7.11	0.09	0.03	0.003	Nc1nc(N)c2c(ccc3c2ccn3Cc2ccc(C(F)(F)F)nc2)n1 [Compound 50]
>64	21.3	0.26	0.26	0.003	Nc1nc(N)c2c(ccc3c2ccn3Cc2ccc(B(O)O)cc2)n1 [Compound 51]
64	21.3	0.26	0.26	0.26	N#Cc1cncc(Cn2ccc3c4c(N)nc(N)nc4ccc32)c1 [Compound 53]
2.37	7.11	0.03	0.03	0.01	Nc1nc(N)c2c(ccc3c2ccn3Cc2ccnc(F)c2)n1 [Compound 56]
